This is an account of results in patent publication US7575930B2, “Method for analyzing oligosaccharides from blood plasma” (priority 2005, dated 2009).

The data set can be described thus: Monitoring of the plasma concentration of the main oligosaccharides of a VLMWH in human volunteers (plasma filtration + anion-exchange HPLC). Format: in vivo. As to the method: A plasma sample with a volume of between 100 and 1000 μl is withdrawn and, if appropriate, the internal standard is added to the latter.
After homogenization, the resulting solution is introduced into a 30 kD Ultrafree 05 ultrafiltration cartridge (Millipore) rinsed beforehand with 250 μl of water by centrifuging at 10 000 rev/min for 5 minutes. The plasma is introduced into the upper part of the cartridge once or twice, if the amounts to be filtered are greater than 500 μl.
The cartridge is centrifuged at 10 000 rev/min for between 1 and 2 hours and then the filtrate is withdrawn. If appropriate, the second part of the plasma to be filtered is introduced into the upper part of the cartridge and the latter is again centrifuged. The exact amount of plasma introduced will have been weighed. The cartridge is centrifuged until the protein residue in the upper part of the cartridge represents no more than approximately 10% of the initial part.
The filtrate is withdrawn and 210 μl of 3M KCl per ml of plasma filtered are added to the concentrate.
After homogenization, the cartridge is centrifuged at 10 000 rev/min for between 1 and 4 hours. The cartridge is centrifuged until the protein residue in the upper part of the cartridge represents no more than approximately 10% of the initial part.
The second filtrate is withdrawn and 210 μl of 3M KCl per ml of plasma filtered are added a second time to the concentrate.
The third filtrate is withdrawn and 250 μl of water per ml of plasma filtered are added.
The filtrates are combined and diluted 5 fold in water, and the whole is injected directly in anion-exchange HPLC. Immediately before injection, the pH of the injected solution is adjusted to 3 by addition of 1N HCl.
The filtered plasma is analyzed by anion-exchange HPLC.
The columns used are IonPAc As11 columns (Dionex), with a length of 25 cm and an internal diameter of 2 mm. The detector used is a UV spectrophotometer equipped with an array of diodes.
The whole of the […] is injected after adjustment of the pH to 3 by addition of N HCl. The flow rate chosen is 0.22 ml/min; the column temperature is 40° C.
Elution is carried out in gradient mode. The two solutions used are:
Solvent A: NaH2PO4 2.5 mM, brought to pH 2.9 by addition of H3PO4
Solvent B: NaClO4 1N, NaH2PO4 2.5 mM, brought to pH 3.0 by addition of H3PO4
The elution gradient is as follows:
T=0 min: % B=3; T=40 min: % B=60; T=60 min: % B=80
A VLMWH with an average molecular weight of 2500 Da is administered at the target dose of 1.4 mg/kg to human volunteers. Blood samples are withdrawn at the times 0, 0.25 h, 0.5 h, 0.75 h, 1 h, 1.25 h, 1.5 h, 2 h, 2.5 h, 3 h, 3.5 h, 4 h, 4.5 h, 5 h, 6 h, 7 h, 8 h, 9 h, 10 h, 12 h, 14 h and 24 h after administration.
As the VLMWH used is a complex mixture of oligosaccharides, the study was limited to certain components chosen from this mixture.

Where [1] appears, read: 0 h after administration of VLMWH (2500 Da) 1.4 mg/kg.
Where [2] appears, read: 0.25 h after administration of VLMWH (2500 Da) 1.4 mg/kg.
The mark [3] stands for this setting: 0.5 h after administration of VLMWH (2500 Da) 1.4 mg/kg.
[4] abbreviates: 0.75 h after administration of VLMWH (2500 Da) 1.4 mg/kg.
The mark [5] stands for this setting: 1 h after administration of VLMWH (2500 Da) 1.4 mg/kg.
Setting [6] is: 1.25 h after administration of VLMWH (2500 Da) 1.4 mg/kg.
Setting [7] is: 1.5 h after administration of VLMWH (2500 Da) 1.4 mg/kg.
The mark [8] stands for this setting: 2 h after administration of VLMWH (2500 Da) 1.4 mg/kg.
Where [9] appears, read: 2.5 h after administration of VLMWH (2500 Da) 1.4 mg/kg.
Where [10] appears, read: 3 h after administration of VLMWH (2500 Da) 1.4 mg/kg.
The mark [11] stands for this setting: 3.5 h after administration of VLMWH (2500 Da) 1.4 mg/kg.
Setting [12] is: 4 h after administration of VLMWH (2500 Da) 1.4 mg/kg.
The mark [13] stands for this setting: 4.5 h after administration of VLMWH (2500 Da) 1.4 mg/kg.
Where [14] appears, read: 5 h after administration of VLMWH (2500 Da) 1.4 mg/kg.
[15] abbreviates: 6 h after administration of VLMWH (2500 Da) 1.4 mg/kg.
The mark [16] stands for this setting: 7 h after administration of VLMWH (2500 Da) 1.4 mg/kg.
The mark [17] stands for this setting: 8 h after administration of VLMWH (2500 Da) 1.4 mg/kg.
[18] abbreviates: 9 h after administration of VLMWH (2500 Da) 1.4 mg/kg.
The mark [19] stands for this setting: 10 h after administration of VLMWH (2500 Da) 1.4 mg/kg.
[20] abbreviates: 12 h after administration of VLMWH (2500 Da) 1.4 mg/kg.
[21] abbreviates: 14 h after administration of VLMWH (2500 Da) 1.4 mg/kg.

As to `CC(=O)NC1C(OC2C(C(=O)O)OC(OC3C(COS(=O)(=O)O)OC(OC4C(C(=O)O)OC(OC5C(COS(=O)(=O)O)OC(O)C(NS(=O)(=O)O)C5O)C(OS(=O)(=O)O)C4O)C(NS(=O)(=O)O)C3OS(=O)(=O)O)C(O)C2O)OC(COS(=O)(=O)O)C(OC2OC(C(=O)O)=CC(O)C2O)C1O` (stereo not shown) [ΔIIaIIsIs], the plasma concentration under setting [1] turned out to be 0 nM; the plasma concentration under setting [2] was 50 nM; the plasma concentration under setting [3] is 100 nM; the plasma concentration under setting [4] came out at 100 nM; the plasma concentration under setting [5] is 100 nM; the plasma concentration under setting [6] came out at 120 nM. In addition, the plasma concentration under setting [7] was 110 nM; the plasma concentration under setting [8] amounted to 110 nM; the plasma concentration under setting [9] stood at 90 nM; the plasma concentration under setting [10] amounted to 80 nM; the plasma concentration under setting [11] was 90 nM; the plasma concentration under setting [12] was determined as 100 nM. Also, the plasma concentration is, setting by setting: under setting [13], 100 nM; under setting [14], 90 nM; under setting [15], 80 nM; under setting [16], 100 nM; under setting [17], 70 nM; under setting [18], 70 nM. Besides, the plasma concentration was found to be 70 nM under setting [19], 80 nM under setting [20], 70 nM under setting [21] and 50 nM (24 h after administration of VLMWH (2500 Da) 1.4 mg/kg).
With `O=C(O)C1=CC(O)C(OS(=O)(=O)O)C(OC2C(COS(=O)(=O)O)OC(OC3C(C(=O)O)OC(OC4C(COS(=O)(=O)O)OC(OC5C(C(=O)O)OC(OC6C(COS(=O)(=O)O)OC(O)C(NS(=O)(=O)O)C6O)C(OS(=O)(=O)O)C5O)C(NS(=O)(=O)O)C4O)C(OS(=O)(=O)O)C3O)C(NS(=O)(=O)O)C2O)O1` (stereo not shown) [ΔIsIsIs], the plasma concentration is 0 nM under setting [1]; 20 nM under setting [2]; 40 nM under setting [3]; 30 nM under setting [4]; 40 nM under setting [5]; 40 nM under setting [6]. For the same compound, the plasma concentration came to 30 nM under setting [7]; 30 nM under setting [8]; 20 nM under setting [9]; 20 nM under setting [10]; 20 nM under setting [11]; 10 nM under setting [12]. Besides, the plasma concentration runs as follows: under setting [13], 10 nM; under setting [14], 10 nM; under setting [15], 10 nM; under setting [16], 10 nM; under setting [17], 0 nM; under setting [18], 0 nM. In addition, the plasma concentration runs as follows: under setting [19], 0 nM; under setting [20], 0 nM; under setting [21], 0 nM.
With `O=C(O)C1=CC(O)C(OS(=O)(=O)O)C(OC2C(COS(=O)(=O)O)OC(OC3C(C(=O)O)OC(OC4C(COS(=O)(=O)O)OC(O)C(NS(=O)(=O)O)C4O)C(OS(=O)(=O)O)C3O)C(NS(=O)(=O)O)C2O)O1` (stereo not shown) [ΔIsIs], the plasma concentration was 0 nM under setting [1]; 160 nM under setting [2]; 240 nM under setting [3]; 210 nM under setting [4]; 200 nM under setting [5]; 190 nM under setting [6]. In addition, the plasma concentration was found to be 190 nM under setting [7]; 150 nM under setting [8]; 100 nM under setting [9]; 90 nM under setting [10]; 70 nM under setting [11]; 70 nM under setting [12]. For the same compound, the plasma concentration is 60 nM under setting [13]; 50 nM under setting [14]; 40 nM under setting [15]; 30 nM under setting [16]; 20 nM under setting [17]; 10 nM under setting [18]. In addition, the plasma concentration runs as follows: under setting [19], 10 nM; under setting [20], 10 nM; under setting [21], 0 nM.
